A value given as a limit tells only on which side of the number the result lay.

Results on seven molecules are retold here after patent publication US20160375019A1, “TREATMENT OF CHRONIC GRAFT VERSUS HOST DISEASE WITH SYK INHIBITORS” (Gilead Sciences, Inc., priority 2015, published 2016).

A short description of data set [1]: Kinetic Solubility in phosphate buffer at pH 7.4. The data set is classed as physicochemical. The conditions noted are these: 37 °C, aqueous buffer, kinetic from dmso stock; phosphate buffer pH 7.4. As for the experimental part:
The kinetic solubility of compounds in phosphate buffer at pH 7.4 was assessed. The compounds to be tested were dissolved in dimethylsulfoxide at a 10 mM concentration. Stock samples were diluted, 3 μl with 297 μl of the phosphate buffer at pH 7.4 (DulBecco's phosphate buffered saline (Sigma-Aldrich D8662), overall molarity is 0.149 M and pH 7.43). The samples were then incubated for 24 hours at 37° C. with shaking, the centrifuged and an aliquot taken and tested relative to a known standard concentration of 0.1 mM.

The test system of data set [2] is hepatocytes. The data set is classed as in vitro ADME. The conditions noted are these: human. As for the experimental part:
The human […] stability of the compounds as predicted hepatocyte clearance in L/hr/kg was assessed. Compounds to be tested were diluted to 200 μM (4 μl of 10 mM DMSO stock into 196 μl ACN:H2O (50:50). Propranolol was used as a positive control, and buffer only without hepatocytes as 0% control. These were further diluted 4 μl with 891 μl KHB buffer (InVitroGRO catalog number Z99074) to provide 2× dosing solution. To each well of 24 well plate, 250 μl of the 2× dosing solution was added to each well with 250 μl of hepatocytes cells (1×10^6 viable cells/ml per well) or KHB for control samples to achieve a final compound concentration of 1 μM during incubation. The final solvent concentration was 0.01% DMSO and 0.25% ACN. The culture plate was placed on a rocker and incubated at 37° C., 5% CO2. Samples were collected at time 0, 1, 3, and 6 hours. The loss of parent compound was determined using LC-MS methods against a standard curve.

The subject of data set [3] is basophils (CD63 expression) in human whole blood. Nature of the data set: 384-well HTBS Whole Blood CD63 Basophil Assay. The class given is cell-based. The conditions noted are these: human whole blood (25% blood); for IC50: comparison table; for EC50: Homo sapiens, anti-FceRI mAb activation. As for the experimental part:
Syk activity was assessed in relation to reduced activation of basophils as measured by the expression of CD63 in a human whole blood basophil cellular assay (25% blood). Basophil activation was measured in human whole blood using the Flow CAST kit (Buhlmann Laboratories AG, Baselstrasse, Switzerland) following the protocol provided by the manufacturer with minor modifications. Fresh human whole blood in heparin was collected and delivered same day (AllCells, Emeryville, Calif.). Whole blood samples were incubated with either DMSO (1% final) or serial diluted compounds in DMSO for 60 minutes at 37° C. Basophils were activated using the anti-FceRI mAb and stained with anti-CD63-FITC and anti-CCR3-PE for 20 minutes at 37° C. (per well: 50 μL of whole blood was mixed with 113 μL of stimulation buffer, 8.5 μL anti-FceRI mAb, 8.5 μL Ab stain CCR3-PE/CD63-FITC). Cells were centrifuged at 1000×g for 18 minutes and 150 μL/well of supernatant removed. Red blood cells were lysed and cells fixed by 2 rounds of cell lysing: resuspending cell pellets with 150 μL/well 1× lysis buffer, incubating at room temperature for 10 minutes, and collecting cell pellets by centrifuging for 1200 rpms for 5 minutes. Cells were washed with 150 μL/well wash buffer twice, and resuspended in a final volume of 75 μL/well of wash buffer for either immediate flow cytometery analysis or overnight incubation at 4° C. followed by flow cytometry analysis. Degranulation (basophil activation) was detected by CD63 surface expression on CCR3 positive cells. The percent CD63 positive cells within the gated basophil population were determined and normalized to the DMSO (negative control) and control compound (positive control).

For data set [4], the system named is aberrant GVHD B-cell populations. To be noted: ex vivo; cited from earlier work.

Consider `Nc1cncc(-c2cn3ccnc3c(Nc3ccc(N4CCN(C5COC5)CC4)cc3)n2)n1` [Ex.-2, 6-(6-aminopyrazin-2-yl)-N-(4-(4-(oxetan-3-yl)piperazin-1-yl)phenyl)imidazo[1,2-a]pyrazin-8-amine], for which the solubility (kinetic) (usually solubility judged after dilution from a stock solution rather than from solid) at 24 h in data set [1] is > 90 µM. Also, in data set [2], the Hheps CL turned out to be 0.917 mL/min/kg.

As to `Nc1cncc(-c2cn3ccnc3c(Nc3ccc(N4CCO[C@@H](CO)C4)cc3)n2)n1` [Ex.-3, (R)-(4-(4-((6-(6-aminopyrazin-2-yl)imidazo[1,2-a]pyrazin-8-yl)amino)phenyl)morpholin-2-yl)methanol], half-maximal inhibition in data set [3] (IC50) was put at 63 nM. In addition, in data set [1], the kinetic solubility at 24 h is > 90 µM. The molecule also registered a Hheps CL in data set [2] of 1.5 mL/min/kg.

As for `Cc1c(-c2cncc(N)n2)nc(Nc2ccc(N3CCN(C4COC4)CC3)cc2)c2nccn12` [Ex.-4, 6-(6-aminopyrazin-2-yl)-5-methyl-N-(4-(4-(oxetan-3-yl)piperazin-1-yl)phenyl)imidazo[1,2-a]pyrazin-8-amine], in data set [3], the EC50 (commonly the concentration needed to bring the measured effect to its halfway point) was < 200 nM and inhibition was half-maximal at 157 nM (IC50). Also, in data set [1], the kinetic solubility at 24 h is > 90 µM. This molecule returned a Hheps CL in data set [2] of 1.33 mL/min/kg.

For the molecule `Nc1cncc(-c2cn3ccnc3c(Nc3ccc(N4CCN(C5COC5)CC4)c(OCCO)c3)n2)n1` [Ex.-5, 2-(5-((6-(6-aminopyrazin-2-yl)imidazo[1,2-a]pyrazin-8-yl)amino)-2-(4-(oxetan-3-yl)piperazin-1-yl)phenoxy)ethanol], in data set [3], the EC50 was < 200 nM and the IC50 (usually the midpoint of a concentration-inhibition curve) is 120 nM. In addition, the solubility (kinetic) at 24 h in data set [1] was > 90 µM. For the same molecule, the Hheps CL in data set [2] worked out at 1.17 mL/min/kg.

As to `Nc1cncc(-c2cn3ccnc3c(Nc3ccc(N4CCN(CC(CO)CO)CC4)cc3)n2)n1` [Ex.-6, 2-((4-(4-((6-(6-aminopyrazin-2-yl)imidazo[1,2-a]pyrazin-8-yl)amino)phenyl)piperazin-1-yl)methyl)propane-1,3-diol], in data set [3], the concentration giving a half-maximal response (EC50) is < 200 nM and the IC50 is 128 nM. Further, the solubility (kinetic) at 24 h in data set [1] was > 90 µM. For the same molecule, the Hheps CL in data set [2] is 1.33 mL/min/kg.

In the case of `Cc1ncc(-c2cn3ccnc3c(Nc3ccc(N4CCN(C5COC5)CC4)c(OCCO)c3)n2)nc1N` [Ex.-7, 2-(5-((6-(6-amino-5-methylpyrazin-2-yl)imidazo[1,2-a]pyrazin-8-yl)amino)-2-(4-(oxetan-3-yl)piperazin-1-yl)phenoxy)ethanol], the kinetic solubility at 24 h in data set [1] was > 90 µM. The molecule also had a Hheps CL in data set [2] of 0.833 mL/min/kg.

With `COc1cc(Nc2ncc(F)c(Nc3ccc4c(n3)N(COP(=O)(O)O)C(=O)C(C)(C)O4)n2)cc(OC)c1OC` [fostamatinib], the “function and frequency of aberrant GVHD B-cell populations” value in data set [4] was “selectively reduce the function and frequency of aberrant GVHD B-cell populations”.
